{"source": "patent US20100279941A1", "about": "“CD36 MODULATION AND USES THEREOF” (priority 2009, published 2010)", "key": {"[1]": {"system": "Akt", "test": "Western blot of left ventricle: phosphorylated Akt to total Akt", "format": "in vivo, mice", "experimental": "Experimental model of IHD: Transient left coronary artery ligation in vivo. Mice were subjected to a transient LCAL surgery as described before, with minor modifications [Tarnayski et al., 2004]. Mice were injected i.p. with buprenorphine (0.05 mg/kg) and placed in an induction chamber with inhalation anesthesia comprised of 3% isoflurane mixed with 100% oxygen. Mice were intubated with a blunt ended 20-gauge catheter into the trachea via the mouth and mechanically ventilated at a tidal volume of 7 ml/kg at 130 respirations/min with a MiniVent™ mouse ventilator (model 845, Harvard Apparatus, Saint-Laurent, QC, Canada). Anesthesia was maintained with 1.5-2% isoflurane and the animals were kept warm using electrical heating pads during the surgical procedure. The chest was opened by a horizontal incision through the skin and muscle layers at the third intercostal space exposing the left side of the heart. […] Visual blanching distal to the coronary occlusion confirmed myocardial ischaemia. Lidocaine (6 mg/kg) was administered i.p. just following occlusion and prior to reperfusion. After 30 minutes, the PE10 tubing was removed allowing reperfusion. The lungs were reinflated and the chest wound closed layer by layer before extubation. […] Hearts were immediately frozen at −80° C. unless otherwise stated.\nWestern blot analysis. Total ventricular protein lysates were prepared as described previously [Bodart et al., 2002]. Left ventricles were homogenized in PBS containing a protease inhibitor cocktail (Roche Applied Science, Indianapolis, Ind., USA) and 1 mM sodium orthovanadate. Homogenates were incubated for 10 min on ice with an equal volume of lysis buffer (NaCl 300 mM, Tris-HCl 100 mM, 2% Triton X-100, 0.2% SDS, 50 mM NaF, 4 mM EDTA, 1 mM sodium orthovanadate and protein inhibitors, pH=7.5), and centrifuged at 14,000 g for 30 minutes at 4° C. The protein concentration of the su pernatant was determined by the bicinchoninic acid (BCA) protein assay (Pierce Biotechnology, Rockford, Ill., USA). Equal amounts (50 or 100 μg) of protein extracts were separated on 10% SDS-polyacrylamide gels and transferred electrophoretically to polyvinylidene difluoride (PVDF) membranes (Bio-Rad Laboratories, Hercules, Calif., USA) for immunoblotting. […] Antibody binding was detected by enhanced chemiluminescence using an alpha Imager™ (Alpha Innotech Corporation, San Leandro, Calif., USA). Quantification of the digital images obtained was performed using ImageQuant™ 5.2 software (Molecular Dynamics, Sunnyvale, Calif., USA)."}, "[2]": {"system": "CD36^+/+ and CD36^−/− mice", "test": "Myeloperoxidase assay of myocardial leukocyte accumulation", "format": "in vivo", "details": "48 hours reperfusion; CD36-dependent (CD36^+/+ mice); 10-week pretreatment; p<0.05", "experimental": "Experimental model of IHD: Transient left coronary artery ligation in vivo. Mice were subjected to a transient LCAL surgery as described before, with minor modifications [Tarnayski et al., 2004]. Mice were injected i.p. with buprenorphine (0.05 mg/kg) and placed in an induction chamber with inhalation anesthesia comprised of 3% isoflurane mixed with 100% oxygen. Mice were intubated with a blunt ended 20-gauge catheter into the trachea via the mouth and mechanically ventilated at a tidal volume of 7 ml/kg at 130 respirations/min with a MiniVent™ mouse ventilator (model 845, Harvard Apparatus, Saint-Laurent, QC, Canada). Anesthesia was maintained with 1.5-2% isoflurane and the animals were kept warm using electrical heating pads during the surgical procedure. The chest was opened by a horizontal incision through the skin and muscle layers at the third intercostal space exposing the left side of the heart. […] Visual blanching distal to the coronary occlusion confirmed myocardial ischaemia. Lidocaine (6 mg/kg) was administered i.p. just following occlusion and prior to reperfusion. After 30 minutes, the PE10 tubing was removed allowing reperfusion. The lungs were reinflated and the chest wound closed layer by layer before extubation. […]\nMyeloperoxidase assay. […] The numbers of PMN per left ventricle were calculated from the standard curves."}}, "data": [{"substance": "HAIC-2MeDTrp-DLys-Trp-DPhe-Lys-NH2 [EP 80317]", "values": [{"measurement": "increase of P-Akt to total Akt band density ratio", "setting": "[1]; 6 hours reperfusion, CD36^+/+ mice, p<0.01", "value": 57, "unit": "%"}, {"measurement": "effect on P-Akt/Akt ratio", "setting": "[1]; 6 hours reperfusion, CD36^−/− mice, in words", "value": "no effect"}, {"measurement": "increase of P-Akt/Akt density ratio", "setting": "[1]; 48 hours reperfusion, CD36^+/+ mice, p<0.01", "value": 89, "unit": "%"}, {"measurement": "effect on Akt phosphoprotein signal", "setting": "[1]; 48 hours reperfusion, genotype not printed in the sentence (FIG. 7D), in words", "value": "no significant effect"}, {"measurement": "reduction in myocardial leukocyte accumulation", "setting": "[2]", "value": 53, "unit": "%"}]}]}
